Measured values: patent US11149037B2, “Pyrazole MAGL inhibitors” (H. Lundbeck A/S, priority 2017, dated 2021)

What was measured:
MAGL [1] = molecular target: T1, MAGL (Mus musculus (Mouse), UniProt O35678); experiment: In vitro competitive activity-based protein profiling, mouse proteomes (brain membrane fraction or cell lysates); type: biochemical; conditions: mouse proteome, read-out: MAGL % inh. 1 μM (mouse)
Outline: (§1)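 Activity of MAGL and FAAH was quantified from fluorescent gel band intensities. Beforehand, inhibitors at several concentrations competed against subsequent probe labelling (FP-Rh, JW912 or HT-01) in species-matched proteomes, each step 30 min at 37° C.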

FAAH [2] = molecular target: T2, FAAH (Mus musculus (Mouse), UniProt O08914); experiment: as above; type: biochemical; conditions: mouse proteome, read-out: FAAH % inh. 1 μM (mouse)
Outline: as §1

FAAH [3] = molecular target: FAAH (Homo sapiens (Human), UniProt O00519); experiment: In vitro competitive activity-based protein profiling, human proteomes (prefrontal cortex or PC3 cell membrane fractions); type: biochemical; conditions: human proteome; for inhibition at 1 µM: read-out: FAAH % inh. 1 μM (human)
Outline: as §1

MAGL [4] = molecular target: MAGL (Homo sapiens (Human), UniProt Q99685); experiment: as above; type: biochemical; conditions: human proteome; for inhibition at 1 µM: read-out: MAGL % inh. 1 μM (human)
Outline: as §1

MAGL [5] = molecular target: T1, MAGL; experiment: Mouse brain proteomes from inhibitor treated mice (oral gavage, sacrificed 4 h after administration); type: in vivo; conditions: 5 mg/kg oral gavage
Procedure: (§2) Preparation of Mouse Brain Proteomes from Inhibitor Treated Mice.
(§3) Inhibitors were administered to wild-type C57B1/6J by oral gavage in a vehicle of polyethylene glycol. Each animal was sacrificed 4 h following administration and brain proteomes were prepared and analyzed according to previously established methods (See Niphakis, M. J., et al. (2011) ACS Chem. Neurosci. and Long, J. Z., et al. Nat. Chem. Biol. 5:37-44).

FAAH [6] = molecular target: T2, FAAH; experiment: as above; type: in vivo; conditions: 5 mg/kg oral gavage
Procedure: as §2, §3

T2 sequence (O08914 whole entry): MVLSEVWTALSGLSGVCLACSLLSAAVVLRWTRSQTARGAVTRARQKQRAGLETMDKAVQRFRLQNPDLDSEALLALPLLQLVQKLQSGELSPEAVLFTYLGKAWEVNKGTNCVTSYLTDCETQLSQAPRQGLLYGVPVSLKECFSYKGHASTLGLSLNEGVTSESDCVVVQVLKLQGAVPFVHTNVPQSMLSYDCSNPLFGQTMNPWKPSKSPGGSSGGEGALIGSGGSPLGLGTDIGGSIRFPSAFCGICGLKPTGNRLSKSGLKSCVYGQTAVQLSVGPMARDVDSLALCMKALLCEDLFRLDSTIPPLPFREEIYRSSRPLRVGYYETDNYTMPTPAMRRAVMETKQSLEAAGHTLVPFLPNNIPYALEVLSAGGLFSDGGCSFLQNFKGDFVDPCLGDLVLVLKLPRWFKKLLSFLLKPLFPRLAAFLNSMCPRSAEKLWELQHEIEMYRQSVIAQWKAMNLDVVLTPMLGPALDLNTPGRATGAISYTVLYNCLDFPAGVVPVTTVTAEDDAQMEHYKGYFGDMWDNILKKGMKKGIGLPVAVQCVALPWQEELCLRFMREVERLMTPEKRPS
T1 sequence (O35678 whole entry): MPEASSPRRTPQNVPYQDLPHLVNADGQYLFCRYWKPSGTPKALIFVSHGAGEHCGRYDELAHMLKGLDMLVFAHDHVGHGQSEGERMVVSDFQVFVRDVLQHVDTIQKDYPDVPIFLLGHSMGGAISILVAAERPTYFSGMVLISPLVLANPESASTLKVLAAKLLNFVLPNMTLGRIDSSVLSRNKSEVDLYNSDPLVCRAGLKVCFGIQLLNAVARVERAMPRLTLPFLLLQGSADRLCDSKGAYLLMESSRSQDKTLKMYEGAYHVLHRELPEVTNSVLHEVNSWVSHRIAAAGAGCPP
FAAH (Homo sapiens (Human), UniProt O00519), sequence (O00519 whole entry): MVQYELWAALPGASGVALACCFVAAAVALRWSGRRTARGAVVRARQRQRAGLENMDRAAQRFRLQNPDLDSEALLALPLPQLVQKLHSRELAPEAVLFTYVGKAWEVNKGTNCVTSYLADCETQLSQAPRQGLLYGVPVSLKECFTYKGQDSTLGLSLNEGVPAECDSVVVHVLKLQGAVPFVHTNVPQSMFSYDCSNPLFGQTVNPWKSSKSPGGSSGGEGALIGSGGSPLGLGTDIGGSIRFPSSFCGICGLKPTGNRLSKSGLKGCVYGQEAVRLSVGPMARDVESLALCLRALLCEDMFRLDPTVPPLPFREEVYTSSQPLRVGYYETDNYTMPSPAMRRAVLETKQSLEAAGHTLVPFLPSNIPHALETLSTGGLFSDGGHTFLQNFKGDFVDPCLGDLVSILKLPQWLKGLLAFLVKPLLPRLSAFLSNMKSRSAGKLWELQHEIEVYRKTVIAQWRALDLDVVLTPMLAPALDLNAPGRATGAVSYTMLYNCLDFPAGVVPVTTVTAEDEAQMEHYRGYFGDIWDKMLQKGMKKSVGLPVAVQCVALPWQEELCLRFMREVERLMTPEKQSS
MAGL (Homo sapiens (Human), UniProt Q99685), sequence (Q99685 whole entry): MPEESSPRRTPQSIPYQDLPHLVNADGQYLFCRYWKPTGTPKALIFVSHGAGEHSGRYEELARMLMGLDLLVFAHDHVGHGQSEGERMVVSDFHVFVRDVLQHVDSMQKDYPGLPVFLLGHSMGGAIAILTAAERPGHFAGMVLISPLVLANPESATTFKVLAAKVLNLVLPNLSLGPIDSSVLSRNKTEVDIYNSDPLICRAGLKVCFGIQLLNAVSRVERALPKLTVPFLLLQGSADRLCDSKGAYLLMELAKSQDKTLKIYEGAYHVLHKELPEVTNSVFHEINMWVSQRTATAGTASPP

Compound	inhibition at 1 µM (MAGL [1]) [%]	inhibition at 1 µM (FAAH [2]) [%]	inhibition at 1 µM (FAAH [3]) [%]	inhibition at 1 µM (MAGL [4]) [%]	IC50 (FAAH [3]) [µM]	IC50 (MAGL [4]) [µM]	MAGL % inh. 5 mg/kg (mouse) (MAGL [5])	FAAH % inh. 5 mg/kg (mouse) (FAAH [6])
CN(Cc1ccc(C(F)(F)F)cc1N1CCN(C(=O)CO)CC1)C1(C)CCN(C(=O)n2ccc(NS(C)(=O)=O)n2)CC1 [Example 104, N-(1-(4-((2-(4-(2-Hydroxyacetyl)piperazin-1-yl)-4-(trifluoromethyl)benzyl)(methyl)amino)-4-methylpiperidine-1-carbonyl)-1H-pyrazol-3-yl)methanesulfonamide]	> 75	0 to 25	0 to 25	> 75	–	–	D (% inhibition is greater than or equal to 0% and less than 25%)	D (% inhibition is greater than or equal to 0% and less than 25%)
C[C@@H](c1ccc(Cl)c(N2CCC(F)CC2)c1)N1CCN(C(=O)n2ccc(NS(C)(=O)=O)n2)CC1 [Example 11, (S)—N-(1-(4-(1-(4-chloro-3-(4-fluoropiperidin-1-yl)phenyl)ethyl)piperazine-1-carbonyl)-1H-pyrazol-3-yl)methanesulfonamide]	> 75	0 to 25	0 to 25	> 75	1 to 10	< 0.1	C (% inhibition is greater than or equal to 25% and less than 50%)	D (% inhibition is greater than or equal to 0% and less than 25%)
CC(=O)Nc1ccn(C(=O)N2CCC3(CCCN3Cc3cc4cc(C(N)=O)ccc4[nH]3)CC2)n1 [Example 14, 2-((8-(3-acetamido-1H-pyrazole-1-carbonyl)-1,8-diazaspiro[4.5]decan-1-yl)methyl)-1H-indole-5-carboxamide]	50 to 75	0 to 25	0 to 25	> 75	1 to 10	< 0.1	D (% inhibition is greater than or equal to 0% and less than 25%)	D (% inhibition is greater than or equal to 0% and less than 25%)

Further lines, with some results ahead:

inhibition at 1 µM (MAGL [1]) [%]	inhibition at 1 µM (FAAH [2]) [%]	inhibition at 1 µM (FAAH [3]) [%]	inhibition at 1 µM (MAGL [4]) [%]	IC50 (FAAH [3]) [µM]	IC50 (MAGL [4]) [µM]	Compound	MAGL % inh. 5 mg/kg (mouse) (MAGL [5])	FAAH % inh. 5 mg/kg (mouse) (FAAH [6])
> 75	0 to 25	0 to 25	> 75	–	–	C[C@H]1CN(Cc2ccc(Cl)c(N3CC4COCC4C3)c2)CCN1C(=O)n1ccc(NS(C)(=O)=O)n1 (stereo partly drawn) [Example 135, N-(1-((2S)-4-(4-Chloro-3-(tetrahydro-1H-furo[3,4-c]pyrrol-5(3H)-yl)benzyl)-2-methylpiperazine-1-carbonyl)-1H-pyrazol-3-yl)methanesulfonamide]	D (% inhibition is greater than or equal to 0% and less than 25%)	D (% inhibition is greater than or equal to 0% and less than 25%)
> 75	0 to 25	0 to 25	> 75	–	–	C[C@@H]1CN(C(=O)n2ccc(NS(C)(=O)=O)n2)CCN1Cc1ccc(Cl)c(N2CC3COCC3C2)c1 (stereo partly drawn) [Example 133, N-(1-((3R)-4-(4-Chloro-3-(tetrahydro-1H-furo[3,4-c]pyrrol-5(3H)-yl)benzyl)-3-methylpiperazine-1-carbonyl)-1H-pyrazol-3-yl)methanesulfonamide]	D (% inhibition is greater than or equal to 0% and less than 25%)	D (% inhibition is greater than or equal to 0% and less than 25%)
> 75	0 to 25	25 to 50	> 75	1 to 10	< 0.1	CC(=O)Nc1ccn(C(=O)N2CC3CN(Cc4ccc(Cl)c(C(C)(C)O)c4)CC3C2)n1 (stereo not drawn) [Example 150, N-(1-(5-(4-Chloro-3-(2-hydroxypropan-2-yl)benzyl)octahydropyrrolo[3,4-c]pyrrole-2-carbonyl)-1H-pyrazol-3-yl)acetamide]	D (% inhibition is greater than or equal to 0% and less than 25%)	D (% inhibition is greater than or equal to 0% and less than 25%)
